Experimental data as given in patent US9028855B2, “Plant additives and uses thereof to modulate the synthesis of membrane glycerolipids in planta” (Commissariat a l'Energie Atomique et aux Energies …, priority 2009, dated 2015).
Entries after “also recorded” stand apart in the source; their conditions may differ.

How the values were obtained:
[1] = test system: A. thaliana; assay: Root growth (primary root) of plants on high phosphate medium supplied with compound; type: in vivo; settings: for Root Growth: expressed as a percentage having regard to a control, +P control 100, −P 20; for primary root growth (in words): high phosphate medium supplied with compound
Source text: In response to phosphate starvation, the primary root growth is inhibited (Svistoonoff et al., 2007).

[2] = test system: wild type seedlings; assay: Anthocyanins content (spectrophotometric); type: in vivo, A. thaliana; set-up: key to Antho: anthocyanin content as A530 - 2.2*A652; settings: accumulation of anthocyanes; +P control 46, −P 1008
Experimental: Anthocyanins were extracted with propanol:HCl:H2O (81:1:18) for 5 min at room temperature and 3 min at 100° C. Samples are centrifuged for 10 min at 4° C. Supernatants were collected and absorption measured at 530 nm and […]. Anthocyanin content was calculated as A530-2.2A652 (Lange et al., 1971).

[3] = test system: phosphate transporter PHT1;4; assay: 8′G::GUS, follow-up of the expression of the phosphate transporter PHT1;4 (GUS staining); type: in vivo, A. thaliana; settings: compound added to the cultivation medium
Source text: 8′G cell line was obtained as follows: for the PHT1;4 promoter fusion, a 2 kb region upstream of the ORF of PHT1;4 was cloned in the vector pENTR/D-TOPO (pENTRT™/D-TOPO® Cloning Kit, ref. K2400-20, Invitrogen) and transferred to pKGWFS7 (Karimi et al., 2002) by recombination using Gateway BP (Gateway® BP Clonase® enzyme mix, ref. 11789-013, Invitrogen) and LR Clonase enzyme mixes (LR Clonase® II Plus enzyme, ref. 12538-120, Invitrogen), respectively, to produce the pPHT1;4:GUS-GFP gene fusion. This fusion was then introduced into the Arabidopsis genome via the Agrobacterium-mediated transformation system (Logemann et al., 2006).
Plants were examined for GUS activity by dipping the samples in a GUS staining solution (50 mM sodium phosphate buffer pH 7.0; 0.01% Triton X-100, 1 mM K3Fe(CN)6, 1 mM K4Fe(CN)6, 1 mg/ml 5-dromo-4-chloro-3-indolyl (3-D-GLUCURONIDE (X-Gluc A) and incubated at 37° C. over-night. After staining, the plants were fixed 2 hours in 50 mM sodium phosphate buffer pH 7.0; 1% glutaraldehyde; 4% formaldehyde.

SMILES	Root Growth [1]	Antho [2]	PHT1;4 expression (in words, summary of analogues) [3]	primary root growth (in words) [1]
Cc1cccc(CN/C=C2/C(=O)Nc3ccccc32)n1 [#18]	88 % of control	195	–	–
CCC1CC(=O)C(=CNc2cc(F)cc(F)c2)C(=O)C1 (centres unmarked) [#32]	13 % of control	103	–	–
COc1ccc(NC=C2C(=O)CC(C)(C)CC2=O)cc1OC [#37]	69 % of control	204	induce expression of the Pht1;4 gene	do not induce a reduction of the root growth
CC1(C)CC(=O)C(=CNc2ccc(Br)cc2)C(=O)C1 [#2]	59 % of control	258	–	–
Cc1ccc(NC=C2C(=O)CC(C)(C)CC2=O)cc1 [#1]	64 % of control	274	induced PHT 1;4 expression	without altering the root growth
CC1(C)CC(=O)C(=CNc2ccccn2)C(=O)C1 [#15]	40 % of control	283	–	–
Cc1ccnc(NS(=O)(=O)c2ccc(NC=C3C(=O)CC(C)(C)CC3=O)cc2)n1 [#26]	6 % of control	640	–	–
CC1(C)CC(=O)C(=CNc2ncc(C(F)(F)F)cc2Cl)C(=O)C1 [#20]	72 % of control	142	induced PHT 1;4 expression; also recorded: induce expression of the Pht1;4 gene	without altering the root growth; also recorded: do not induce a reduction of the root growth
CC1(C)CC(=O)C(=CNc2ccc(S(C)(=O)=O)cc2)C(=O)C1 [#36]	58 % of control	235	–	–
Cc1ccc(NC=C2C(=O)CC(C)(C)CC2=O)cc1Cl [#6]	53 % of control	–	–	–
O=C1CC(c2ccccc2)CC(=O)C1=CNCc1ccccn1 (centres unmarked) [#17]	60 % of control	408	–	–
CC1(C)CC(=O)C(=CNc2ccc(I)cc2)C(=O)C1 [#8]	56 % of control	37	–	–
CC1(C)CC(=O)C(=CNc2cc(Cl)cc(Cl)c2)C(=O)C1 [#4]	50 % of control	210	–	–
Cc1ccc(NC=C2C(=O)CC(C)(C)CC2=O)nc1 [#19]	47 % of control	193	–	–
CC(=NO)c1ccc(NC=C2C(=O)CC(C)(C)CC2=O)cc1 [#25]	63 % of control	405	–	–
CC1(C)CC(=O)C(=CNc2ccncc2)C(=O)C1 [#13]	42 % of control	513	–	–
O=C1CC(c2ccccc2)CC(=O)C1=CNc1ccccc1 (centres unmarked) [#28]	100 % of control	247	induce expression of the Pht1;4 gene	do not induce a reduction of the root growth
CC1(C)CC(=O)C(=CNc2ccc(F)cc2)C(=O)C1 [#5]	73 % of control	110	induced PHT 1;4 expression; also recorded: induce expression of the Pht1;4 gene	without altering the root growth; also recorded: do not induce a reduction of the root growth

SMILES	Root Growth [1]	Antho [2]	PHT1;4 expression (in words, summary of analogues) [3]	primary root growth (in words) [1]
CC1(C)CC(=O)C(=CNc2cccc([N+](=O)[O-])c2)C(=O)C1 [#24]	54 % of control	240	–	–
CC(=O)c1ccc(NC=C2C(=O)CC(C)(C)CC2=O)cc1 [#34]	59 % of control	289	–	–
CC1(C)CC(=O)C(=CNc2ccc(O)cc2)C(=O)C1 [#38]	60 % of control	206	–	–
Cc1cccc(NC=C2C(=O)CC(C)(C)CC2=O)c1 [#7]	75 % of control	172	induced PHT 1;4 expression	without altering the root growth
CSc1ccc(NC=C2C(=O)CC(C)(C)CC2=O)cc1 [#35]	60 % of control	208	–	–
CC1(C)CC(=O)C(=CNc2ccc(Br)cc2)C(=O)C1 [#27]	98 % of control	43	induced PHT 1;4 expression; also recorded: induce expression of the Pht1;4 gene	without altering the root growth; also recorded: do not induce a reduction of the root growth
O=C1CCCC(=O)C1=CNc1cc(Cl)cc(Cl)c1 [#33]	59 % of control	167	–	–
Cc1ccc(NC=C2C(=O)CC(C)(C)CC2=O)c(C)c1 [#9]	71 % of control	130	–	–
O=C1CCCC(=O)C1=CNc1ccc(Cl)cc1Cl [#44]	68 % of control	123	induced PHT 1;4 expression; also recorded: induce expression of the Pht1;4 gene	without altering the root growth; also recorded: do not induce a reduction of the root growth
CC1(C)CC(=O)C(=CNc2cccc(Cl)c2)C(=O)C1 [#10]	41 % of control	225	–	–
CC1(C)CC(=O)C(=CNCc2ccccn2)C(=O)C1 [#11]	63 % of control	163	induced PHT 1;4 expression	without altering the root growth
CC1(C)CC(=O)C(=CNc2ccccc2C(N)=O)C(=O)C1 [#39]	60 % of control	183	–	–
O=C1CCCC(=O)C1=CNc1ccc(Cl)c(Cl)c1 [#43]	67 % of control	186	induced PHT 1;4 expression; also recorded: induce expression of the Pht1;4 gene	without altering the root growth; also recorded: do not induce a reduction of the root growth
CC1(C)CC(=O)C(=CNc2cccnc2)C(=O)C1 [#16]	40 % of control	431	–	–
CC1(C)CC(=O)C(=CNc2ccc(F)c(Cl)c2)C(=O)C1 [#3]	41 % of control	806	–	–
CC1(C)CC(=O)C(=CNc2ccc(F)c(F)c2)C(=O)C1 [#14]	61 % of control	150	induced PHT 1;4 expression	without altering the root growth
Cc1c(Cl)cccc1NC=C1C(=O)CC(C)(C)CC1=O [#12]	57 % of control	850	–	–
COc1cccc(NC=C2C(=O)CC(C)(C)CC2=O)c1 [#47]	70 % of control	324	induced PHT 1;4 expression; also recorded: induce expression of the Pht1;4 gene	without altering the root growth; also recorded: do not induce a reduction of the root growth
